Results from PubChem BioAssay (NCI).
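48-hour exposure; five concentrations; linearly interpolated endpoints. Here, GI50 denotes the concentration required for 50% inhibition of growth. TGI marks complete inhibition of growth.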 Where a SMILES comes first, the peptide text is derived from it. The star is where a group is joined. Cbz = O=C(OCc1ccccc1)*; Bn = c1ccc(C*)cc1

Key:
Assay in all cases: growth of human tumour cells (NCI), 48 h
[1] = system: COLO 205 colon
[2] = system: NCI-H23 lung
[3] = system: SNB-75 CNS
[4] = system: UACC-257 melanoma
[5] = system: SK-OV-3 ovarian
[6] = system: NCI/ADR-RES ovarian
[7] = system: ACHN renal
[8] = system: M14 melanoma
[9] = system: PC-3 prostate
[10] = system: MDA-MB-435

Row | SMILES | TGI [1] | TGI [2] | TGI [3] | TGI [4] | TGI [5] | TGI [6] | TGI [7] | TGI [8] | GI50 [7] | GI50 [9] | TGI [9] | GI50 [3] | GI50 [10] | TGI [10] | GI50 [5] | GI50 [6] | GI50 [1] | GI50 [2] | GI50 [8] | GI50 [4]
1 | CCn1c(=O)c(C(=O)O)c(Cl)c2cc3c(cc21)OCO3 | > 100 µM | > 100 µM | > 100 µM | > 100 µM | > 100 µM | > 100 µM | – | – | – | – | – | – | – | – | – | – | – | – | – | –
2 | CC(=O)OCC1OC(NC(=O)N(CCCl)N=O)C(OC(C)=O)C(OC(C)=O)C1OC(C)=O (configuration not stated) | > 100 µM | > 100 µM | > 100 µM | > 100 µM | > 100 µM | > 100 µM | – | – | – | – | – | – | – | – | – | – | – | – | – | –
3 | CC1C[C@]2(C[C@@H](C)C(=O)O2)OC2CC3(C)C4CCC5C(C)(C)OC(=O)CC[C@@]56C[C@@]46CC[C@]3(C)C12 (some centres not stated) | > 100 µM | > 100 µM | > 100 µM | > 100 µM | – | – | > 100 µM | > 100 µM | – | – | – | – | – | – | – | – | – | – | – | –
4 | c1ccc(-c2n(Cc3ccc4ccccc4c3)c3ccccc3[n+]2Cc2ccc3ccccc3c2)cc1 | – | – | 0.913 µM | – | 1.08 µM | 5.93 µM | 2.36 µM | – | 0.975 µM | 0.27 µM | 1.13 µM | 0.184 µM | 0.288 µM | 1.06 µM | 0.309 µM | 2.21 µM | – | – | – | –
5 | N=C(N)c1ccc(-c2ccc(-c3ccc4ccccc4c3)s2)s1 | 3.17 µM | 11.1 µM | 5.3 µM | 31.2 µM | 42.3 µM | – | 6.66 µM | 5.72 µM | 2.53 µM | 2.19 µM | 4.87 µM | 1.93 µM | 1.91 µM | 4.08 µM | 20.2 µM | – | 1.63 µM | 2.96 µM | 2.45 µM | 16.1 µM
6 | COC(=O)C(Cc1ccc(O)cc1)NC(=O)C(COCc1ccccc1)NC(=O)OCc1ccccc1 (configuration not stated) (Cbz-Ser(Bn)-Tyr-OMe; configuration not given here) | 31.1 µM | 42.8 µM | 29.9 µM | 39.5 µM | 31.4 µM | 38.8 µM | 31.2 µM | 33.5 µM | – | – | 33.3 µM | – | – | 34.1 µM | – | – | – | – | – | –
7 | C1CSCCSCSCCS1 | > 100 µM | > 100 µM | > 100 µM | > 100 µM | > 100 µM | > 100 µM | > 100 µM | > 100 µM | – | – | > 100 µM | – | – | > 100 µM | – | – | – | – | – | –
8 | COc1ccc(-c2oc3cc(OC(C)=O)cc(OC(C)=O)c3c(=O)c2OC)cc1 | 33.9 µM | – | – | 34.7 µM | 80.6 µM | 36 µM | 45.8 µM | 30.6 µM | – | – | 59 µM | – | – | 25.4 µM | – | – | – | – | – | –
9 | CCCCSCC(NC(=O)/C=C/c1c(C)[nH]c(=O)[nH]c1=O)C(=O)OC (configuration not stated) | 112 µM | 339 µM | 241 µM | 235 µM | 226 µM | > 450 µM | – | – | – | – | – | – | – | – | – | – | – | – | – | –
10 | C=CCOCCC(CC=C)C(=O)CC(=O)OC (configuration not stated) | – | > 100 µM | > 100 µM | > 100 µM | > 100 µM | – | > 100 µM | > 100 µM | – | – | – | – | – | – | – | – | – | – | – | –
11 | CS(=O)(=O)c1ccc2nc(-c3ccc(O)cc3)sc2c1 | > 100 µM | 39.6 µM | – | 38.9 µM | 31.3 µM | 36.2 µM | 32.4 µM | 38.4 µM | – | – | 32.1 µM | – | – | 37.8 µM | – | – | – | – | – | –
